{
  "source": "paper PMC6897958",
  "about": "“Structural basis of ligand selectivity and disease mutations in cysteinyl leukotriene receptors” (Nature Communications, 2019)",
  "key": {"CysLT1R wild type": {"molecular_target": "CysLT1R wild type (Homo sapiens, UniProt Q9Y271)", "sequence (Q9Y271 whole entry)": "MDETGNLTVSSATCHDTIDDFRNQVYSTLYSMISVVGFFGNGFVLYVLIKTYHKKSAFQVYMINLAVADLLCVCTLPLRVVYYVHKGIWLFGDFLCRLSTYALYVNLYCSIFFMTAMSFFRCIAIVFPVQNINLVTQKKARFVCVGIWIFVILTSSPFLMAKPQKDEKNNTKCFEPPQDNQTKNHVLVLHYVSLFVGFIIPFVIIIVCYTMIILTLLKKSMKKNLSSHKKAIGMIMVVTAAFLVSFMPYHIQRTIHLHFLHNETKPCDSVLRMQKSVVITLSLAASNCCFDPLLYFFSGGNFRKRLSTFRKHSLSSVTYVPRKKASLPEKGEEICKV", "assay": "cell-based", "details": "HEK293, read-out: % IP1 production (normalized), single replicate values, log[Pranlukast] -11 M; CysLT1-wt"}, "CysLT2R [1]": {"test_system": "CysLT2R", "assay": "IC50 toward CysLT2R of the benzoxazine SAR series, quoted from the literature", "details": "CysLT2R over CysLT1R; SAR series of ref [30]"}, "CysLT1R [2]": {"test_system": "CysLT1R", "details": "Supplementary Table 3 ref ref.2; cited from earlier work"}, "CysLT2R [3]": {"test_system": "CysLT2R", "details": "Supplementary Table 3 ref ref.2; cited from earlier work"}, "CysLT1R [4]": {"test_system": "CysLT1R", "assay": "IC50 toward CysLT1R of the benzoxazine SAR series, quoted from the literature", "details": "CysLT1R over CysLT2R; SAR series of ref [30]"}},
  "data": [
    {"molecule": "O=C(Nc1cccc2c(=O)cc(-c3nnn[nH]3)oc12)c1ccc(OCCCCc2ccccc2)cc1", "note": "[pranlukast]", "values": [
      {"measurement": "remaining activity at 10 pM", "setting": "CysLT1R wild type", "result": 94.3, "unit": "%"}
    ]},
    {"molecule": "O=C(O)CCCN1C[C@@H](C(=O)O)Oc2c(NC(=O)c3ccc(OCCCCCc4ccccc4)cc3)cccc21", "note": "[cpd 15b]", "values": [
      {"measurement": "selectivity for CysLT2R", "setting": "CysLT2R [1]", "result": 200, "unit": "fold"},
      {"measurement": "IC50", "setting": "CysLT1R [2]", "result": 120, "unit": "nM"},
      {"measurement": "IC50", "setting": "CysLT2R [3]", "result": 0.62, "unit": "nM"}
    ]},
    {"molecule": "O=C(O)CCC(=O)N1C[C@@H](C(=O)O)Oc2c(NC(=O)c3ccc(OCCCCc4ccccc4)cc3)cccc21", "note": "[cpd 13e]", "values": [
      {"measurement": "selectivity for CysLT1R", "setting": "CysLT1R [4]", "result": "1,800 fold"},
      {"measurement": "IC50", "setting": "CysLT1R [2]", "result": "< 1", "unit": "nM"},
      {"measurement": "IC50", "setting": "CysLT2R [3]", "result": 1800, "unit": "nM"}
    ]}
  ]
}
